This is an account of results in paper PMC10574351, “First-Row Transition Metal Complexes Incorporating the 2-(2′-pyridyl)quinoxaline Ligand (pqx), as Potent Inflammatory Mediators: Cytotoxic Properties and Biological Activities against the Platelet-Activating Factor (PAF) and Thrombin” (Molecules, 2023).

In general, IC50 refers to the midpoint of a concentration-inhibition curve.

Data set [1] concerns PAF-induced aggregation in washed rabbit platelets (WRPs). Description: Inhibition of PAF-induced aggregation in washed rabbit platelets. It is filed as cell-based. The conditions noted are these: for IC50: washed rabbit platelets, mean ± SD, read-out: IC50 (μM) towards PAF in WRPs. How it is done: The biological experiments of PAF-induced platelet aggregation as well as the evaluation of the inhibitory effect of its synthetic compounds were performed according to thoroughly described protocols. […] Briefly, in order to obtain the washed rabbit platelets (WRPs), platelet-rich plasma was washed on Ficoll–Paque cushions and adjusted to […] platelets/mL of Tyrode’s buffer, pH 7.2. The dilution of PAF was prepared using pyrogen-free 0.15 M NaCl containing 2.5 mg/mL of crystallized bovine serum albumin, required for dispersion of PAF. The compounds under investigation were firstly dissolved in the appropriate solvent that is: DMSO for pqx (0.010 M), H2O for CrCl3 × 3H2O (0.016 M), H2O for MnCl2 × 4H2O (0.004 M), DMSO-EtOH (4/1, v/v)) for FeCl2 × 4H2O (0.014 M), H2O for CoCl2 × 6H2O (0.010 M), H2O for NiCl2 × 6H2O (0.010 M), H2O for CuCl2 × 2H2O (0.008 M), H2O for ZnCl2 (0.013 M), DMSO for 1 (0.017 M), DMSO for 2 (0.010 M0, DMSO for 3 (0.004 M), DMSO for 4 (0.002 M), DMSO for 5 (0.003 M), DMSO-EtOH-H2O (25/1/1, v/v)) for 6 (0.006 M), DMSO for 7 (0.002 M) and aliquots of these solutions were then added in solutions (2.5 mg BSA/mL) of saline.
The experiment on the inhibitory effect of each compound of interest against the washed rabbit platelets (WRPs) aggregation was carried out as per the already described method. The platelets were from male New Zealand white rabbits (about 20), individually housed in stainless steel cages in an air-conditioned room (19 ± 1 °C, 55 ± 5% humidity on a 12/12 h artificial light/dark cycle). Blood samples were drawn from the main ear artery. Microliters of PAF in a final concentration of about 10^–10 M were added to the cuvette of the aggregometer, and the height of the platelet aggregation was monitored. The platelet aggregation induced by PAF, or thrombin was measured before (considered as 0% inhibition) and after the addition of various concentrations of the examined sample, creating a linear curve of percentage inhibition (ranging from 0 to 100%) versus different concentrations of the sample. From this curve, the concentration of the sample that inhibited 50% PAF-induced aggregation was calculated, and this value was defined as IC50 (Inhibitory concentration for 50% Inhibition). Dithiothreitol-insensitive PAF choline phosphotransferase, lyso-PAF:acetyl-CoA acetyltransferase and PAF-acetylhydrolase activity assays were performed on the homogenates of rabbit leukocytes while the activity of lipoprotein-associated phospholipase A2 was assessed on plasma as previously described. The experiments were performed in a model 400 vs. aggregometer of Chrono-Log (Havertown, PA, USA) coupled to a Chrono-Log recorder at 37 °C with constant stirring at 1200 rpm. The separation of platelets was performed with centrifugations in a 3L-R Heraeus Labofuge (Hvanau, Germany), a 400R Heraeus Labofuge and an RC-5B Sorvall (Newtown, CT, USA) refrigerated super speed centrifuge. Bovine serum albumin (BSA), PAF and analytical solvents for the biological assays were purchased from Sigma. […] The measurements were performed in duplicates for each sample concentration in three different WRP preparations, in order to ensure reproducibility. All experiments were also followed by appropriate control tests of the solvent used (saline solution of BSA, DMSO aliquots in a saline solution of BSA-2.5 mg BSA/mL saline- or just in saline), in WRPs. In the aggregometer cuvette (250 to 500 μL) the overall amount of added DMSO, contained in the solution of the sample under study, is not higher than 2–3 μL. All results were expressed as mean ± standard deviation (SD). The t-test was employed to assess differences among the IC50 values of each metal complex against either the PAF- or thrombin-induced aggregation. Differences were statistically significant when the statistical p-value was smaller than 0.05.

The test system of data set [2] is HEK293T (human embryonic kidney cells). Description: MTT cell viability assay, HEK293T. The conditions noted are these: for IC50: 48 h exposure, mean ± SD; for cytotoxic effect in HEK293T: 48 h. It is filed as cell-based. Here is the method:
In this report, cell viability tests were conducted in HEK293T and HeLa cancer cells by means of the colorimetric 3-(4,5-dimethylthiazol-2-yl)-2,5-diphenyl tetrazolium bromide (MTT) assay after exposure for 48 h. A HeLa cancer cell line was selected since it is widely used in cytotoxicity studies. For all complexes, a 10 mM stock solution in DMSO (H2O for cisplatin) was prepared and diluted appropriately to reach the final concentration reported in the Materials and Methods. The non-cancerous HEK293T cell line was used for comparison. The IC50 values of the first-row metal complexes, the pqx ligand and cisplatin, presented herein were calculated using a dose-response model, which was obtained from sigmoidal fitting of dose-response curves.
The HEK293T cell line (immortalized human embryonic kidney cells) was obtained from the Biomedical Research Foundation Academy of Athens (BRFAA), Athens, Greece and the HeLa cell line (cervical cancer cells) was obtained from the National Centre For Scientific Research Demokritos (NCSR Demokritos), Athens, Greece.
Pqx metal complexes were diluted in stock solutions of 10 mM in dimethyl sulfoxide (DMSO). A similar concentration of cisplatin dissolved in H2O was used. HEK293T and HeLa cells were cultured in Dulbecco’s modified Eagle’s medium (DMEM) with high glucose (Biosera, Nuaille, France) supplemented with 10% fetal bovine serum at 37 °C and 5% CO2. Cells were seeded in sterile tissue culture 96-well plates (SPL Life Science, Pochon, Republic of Korea) at a density of 3000 cells per well. After 24 h, the medium was removed and replaced with fresh media containing various concentrations (0.01 μΜ, 0.1 μΜ, 1 μΜ, 10 μΜ, 25 μΜ, 40 μΜ, 55 μΜ, 70 μΜ, 85 μΜ and 100 μΜ) of the compounds to be tested and was further incubated for 48 h at 37 °C. Dimethyl sulfoxide (DMSO) was used as a vehicle at ≤1%. To measure cytotoxicity, a culture medium containing the compounds (or DMSO) was removed, and 100 μL of 0.5 mg/mL MTT reagent (Applichem, Darmstadt, Germany) diluted in DMEM was added to the cells for 3 h at 37 °C. After 3 h incubation in identical conditions, MTT was removed and 200 μL of DMSO was added. Absorbance values of formazan were measured at 540 nm using a BioTek Synergy H1 microplate reader (Agilent, Santa Clara, CA, USA). All compounds were tested in triplicate. The results were statistically analyzed using the nonlinear regression by GraphPad PRISM (Version 9).

Take `CS(C)=O.[Cl][Cu][Cl].c1ccc(-c2cnc3ccccc3n2)nc1` [Complex 3, [Cu(pqx)Cl2(DMSO)]]: the figures for the 50% inhibitory concentration (IC50) in data set [1] and in data set [2] were 10.6 ± 1.4 µM and 2.1 ± 0.52 µM, respectively.
As for `[Cl][Zn][Cl].c1ccc(-c2cnc3ccccc3n2)nc1` [Complex 4, [Zn(pqx)Cl2]], in data set [1], the IC50 came out at 3.3 ± 0.3 µM. In addition, in data set [2], the “cytotoxic effect in HEK293T” value is “negligible cytotoxic effects” and the IC50 came out at 94.9 ± 23.2 µM.
For [Co(pqx)Cl2(DMF)] [Complex 2], the results for the IC50 in data set [1] and in data set [2] were 4.1 ± 0.6 µM and 67 ± 12.6 µM, respectively.
For [Fe(pqx)Cl2]2 [Complex 6], the IC50 in data set [1] was 1.79 ± 0.12 µM; in data set [2], 65.8 ± 13.2 µM.
Consider [Mn(pqx)(H2O)2Cl2]2 [Complex 5], for which the IC50 turned out to be 39 ± 6 µM in data set [1] and 28.8 ± 6.16 µM in data set [2].
Regarding [Ni(pqx)Cl2]2 [Complex 7], the IC50 was 6.83 ± 0.42 µM in data set [1] and 25.5 ± 8.61 µM in data set [2].
With mer-[Cr(pqx)Cl3(H2O)] [Complex 1], the “fold more potent against PAF as opposed to thrombin-induced aggregation” value in data set [1] (ratio of thrombin and PAF IC50) is reported as approximately 12 fold. Further, the IC50 stood at 4.5 ± 0.9 µM in data set [1] and 99 ± 6.16 µM in data set [2]. For the same compound, the “cytotoxic effect in HEK293T” value in data set [2] is given as “negligible cytotoxic effects”.
